We go through two compounds from US20250034151A1, “WEE1 INHIBITOR, PREPARATION THEREFOR, AND USE THEREOF” (JIANGSU TASLY DIYI PHARMACEUTICAL CO., LTD., priority 2022, published 2025).

Structures are written as SMILES.

The subject of series [1] is H1299 cells. In words: Anti-proliferative effect on H1299 cells by Cell Titer-Glo. In kind it is cell-based. Conditions: Homo sapiens, NCI-H1299, 72 h, 3 days, read-out: H1299 (IC50, inhibition of proliferation in vitro). Put shortly: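 H1299 cells exposed to compound dilutions for 3 days at 37 °C, 5% CO2, final DMSO 0.2%. Viability read by CellTiter-Glo luminescence, normalised to untreated-cell (max) and medium (min) controls. IC50 from a variable-slope log(inhibitor) vs. response fit.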
A general note: In ATP-based viability assays light output follows the ATP content of the culture.

In series [2] the test system is MIA PaCa2 cells. The series can be described thus: Anti-proliferative effect on MIA PaCa2 cells by Cell Titer-Glo. The format is cell-based. Conditions: Homo sapiens, MIA PaCa-2, 72 h, 3 days, read-out: MIA PaCa 2 (IC50, inhibition of proliferation in vitro). Put shortly:
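Cells exposed to graded compound concentrations for 3 days at 37° C, 5% CO2, final DMSO 0.2%; viability read by CellTiter-Glo luminescence. Inhibition normalised to untreated cells (max) and medium (min); IC50 fitted by variable-slope log(inhibitor)-response model.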

A short description of series [3]: Membrane permeability study (Caco-2). The format is in vitro ADME. Conditions: human; for Papp A→B at 90 min, 10 µM / Papp B→A at 90 min, 10 µM: pH 7.4, Caco-2, 10 μM; for Papp A→B at 90 min, 10 µM: apical to basolateral; for Papp B→A at 90 min, 10 µM: basolateral to apical. As for the experimental part:
Caco-2 cells were purchased from the […] (Rockville, MD). The cell culture medium was modified Eagle's medium (MEM) containing 10% inactivated fetal bovine serum and 1% non-essential amino acids.
The cells were incubated for 21-28 days after inoculation for transport experiments and the apparent permeability (Papp) of Lucifer Yellow was used to characterize and verify the compactness of the cell monolayer. […] A 10 μM working solution of the compound to be tested was added to the apical side and basolateral side of Caco-2 and incubated at 37° C. for 90 min. After the incubation, dilute the samples on the apical side and basolateral side, and the concentrations of compounds on the apical and basolateral sides were detected by LC-MS/MS, and the concentrations of the compounds were quantified by standard curve.
Background: Caco-2 cells form a polarised layer with tight junctions and transporters.

Series [4] can be described thus: Plasma protein binding (PPB), equilibrium dialysis. In kind it is in vitro ADME. To be noted: mouse plasma, 5 h dialysis. From the text: 1. Experimental Procedure
2. Data Processing and Parameter Calculation

The nature of series [5]: Pharmacokinetics on single dose in mice (intravenous and oral). In kind it is in vivo, ICR mice. To be noted: for F/%: Oral 10 mg/kg vs Intravenous 1 mg/kg; for Cmax / half-life / AUC(0-t) / MRT: male, ICR, mouse, plasma. As for the experimental part: 1. Experimental Aim: The present experiment aimed to obtain the pharmacokinetic profile of the subject compounds in ICR mice (both intravenous and oral) 3.1.2 Test System Species: SPF grade male ICR mice Body weight/weekly age: about 30 g 4. […] 4.2 Subjects Given (Route) Intravenous: 1 mg/kg in a volume of 5 mL/kg Gavage: 10 mg/kg in a volume of 10 mL/kg Ultrasound for 5 min before administration 4.3 Subject Preparation (Concentration) Intravenous: 0.2 mg/mL Gavage: 1 mg/mL Fast overnight before administration and feed four hours after administration. […] The blood samples were stored in a refrigerator at or below −20° C. for LC-MS/MS analysis. […] LC-MS/MS Analytical Detection Used 5. Data Processing The samples were detected for drug concentration at each time point by LC-MS/MS. Pharmacokinetic parameters terminal elimination half-life (t1/2), area under the curve (AUC), apparent volume of distribution (Vd), clearance (CL), mean residence time (MRT), and Cmax were calculated using the non-compartmental model of Phoenix WinNonlin 5.2. Bioavailability (F %) was directly from serum concentration results. Mean±standard deviation (X±SD) was used for blood concentration and pharmacokinetic parameters, etc. Specific testing and analytical methods were specified in the form of protocol revisions.

Series [6] concerns the target CYP2C9 (Homo sapiens, UniProt P11712). The series can be described thus: in vitro. To be noted: CYP2C9 enzyme, pH 7.4, probe BOMCC (0.01 mM).
Series [7] deals with CYP3A4 (Homo sapiens, UniProt P08684). In words: in vitro. Conditions: CYP3A4 enzyme, pH 7.4, probe BOMCC (0.01 mM).
CYP3A4, sequence (P08684 whole entry, species assumed): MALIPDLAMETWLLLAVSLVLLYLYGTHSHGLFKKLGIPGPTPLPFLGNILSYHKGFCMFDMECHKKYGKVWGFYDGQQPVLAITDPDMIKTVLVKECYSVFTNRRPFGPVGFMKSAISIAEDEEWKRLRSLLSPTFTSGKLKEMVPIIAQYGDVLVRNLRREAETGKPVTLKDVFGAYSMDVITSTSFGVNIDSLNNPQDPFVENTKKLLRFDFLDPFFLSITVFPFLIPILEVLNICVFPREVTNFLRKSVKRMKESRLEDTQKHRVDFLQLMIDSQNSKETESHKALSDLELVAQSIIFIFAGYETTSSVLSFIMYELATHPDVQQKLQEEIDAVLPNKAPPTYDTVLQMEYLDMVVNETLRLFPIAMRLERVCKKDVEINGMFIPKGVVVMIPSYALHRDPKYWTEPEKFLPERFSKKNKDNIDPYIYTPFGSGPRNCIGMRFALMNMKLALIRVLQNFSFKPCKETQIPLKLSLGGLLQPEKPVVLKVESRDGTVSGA

CYP2C9, sequence (P11712 whole entry, species assumed): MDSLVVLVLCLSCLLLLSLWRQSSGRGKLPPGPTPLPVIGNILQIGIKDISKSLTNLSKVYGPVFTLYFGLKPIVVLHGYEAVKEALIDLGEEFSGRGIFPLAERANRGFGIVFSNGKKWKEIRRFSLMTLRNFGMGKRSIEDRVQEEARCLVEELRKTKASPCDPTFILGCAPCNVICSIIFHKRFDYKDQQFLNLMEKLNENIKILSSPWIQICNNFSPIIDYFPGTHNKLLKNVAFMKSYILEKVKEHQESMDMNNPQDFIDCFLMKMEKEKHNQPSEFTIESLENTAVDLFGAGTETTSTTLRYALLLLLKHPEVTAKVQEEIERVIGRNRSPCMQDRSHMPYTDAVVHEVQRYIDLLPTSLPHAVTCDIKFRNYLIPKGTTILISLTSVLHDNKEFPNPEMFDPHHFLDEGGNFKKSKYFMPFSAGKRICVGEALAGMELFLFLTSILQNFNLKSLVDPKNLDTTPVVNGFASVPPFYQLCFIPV

Turning to `C=CCn1c(=O)c2cnc(Nc3ccc(N4CCN(C)CC4)cc3)nc2n1-c1cccc(C(C)(C)O)n1` [AZD1775], the IC50 in series [1] lay within 100 to 1000 nM. In series [2], the IC50 fell in the range of 100 to 1000 nM. In series [3], this compound registered a Papp A→B at 90 min, 10 µM of 15.6 ×10⁻⁶ cm/s and a Papp B→A at 90 min, 10 µM of 39.8 ×10⁻⁶ cm/s. Also, the fraction unbound at 5 h, 1 µM in series [4] was 0.087. The compound further displayed a F/% in series [5] of 32%. Moreover, in series [5] (Intravenous, 1 mg/kg), the Cmax was 250 ng/mL and the half-life is 30 min. Also, in series [6], the inhibition at 30 min, 1 µM was 15.4% and the inhibition at 30 min, 10 µM was 6.4%. In addition, in series [7], the inhibition at 30 min, 1 µM was -14% and the inhibition at 30 min, 10 µM is -32.9%.

Take `C=CCn1c(=O)c2cnc(Nc3ccc(N4CC5CC(C4)N5C)cc3)nc2n1-c1cccc(C(C)(C)O)n1` [Compound 27]: the IC50 in series [1] lay within 100 to 1000 nM. The IC50 in series [2] is 100 to 1000 nM. Besides, the efflux ratio at 90 min, 10 µM in series [3] (Caco-2, pH 7.4) came to 17.4. In series [3], this compound came in with an apical-to-basolateral permeability (Papp A→B) at 90 min, 10 µM of 3.07 ×10⁻⁶ cm/s and a Papp B→A at 90 min, 10 µM of 53.5 ×10⁻⁶ cm/s. In series [4], the fraction unbound at 5 h, 1 µM is 0.141. Further, in series [5], the F/% was 28.6%. Further, in series [5] (Intravenous, 1 mg/kg), the AUC(0-t) amounted to 134 ng·h/mL, the Cmax stood at 170 ng/mL, the MRT worked out at 39.6 min and the half-life was 46.8 min. In addition, in series [5] (Oral, 10 mg/kg), the AUC(0-t) was determined as 285 ng·h/mL, the Cmax was determined as 392 ng/mL, the MRT was 66 min and the half-life was 61.8 min.

One may read the Papp A→B as how fast a substance crosses the layer from the apical side. A higher Papp A→B goes with ready permeation. One may read the Papp B→A as the apparent permeability from the basolateral to the apical side of a cell layer. One may read the fraction unbound as free concentration divided by total concentration. One may read the Cmax as the maximum level reached in the sampled fluid or tissue. Usually half-life stands for how long it takes for the measured level to halve. High values mean slow loss, low ones fast loss. What is called inhibition is the change of the read-out against control, counted positive when it falls. Usually efflux ratio stands for the permeability from basolateral to apical divided by that in the opposite direction, in the common usage. Broadly, the AUC(0-t) is the area under the concentration-time curve up to a stated or last time point. Read a high AUC(0-t) as high exposure. One may read the MRT as a mean duration of stay, worked out from the concentration-time curve.
